# Test results published in PMC6934184, “Selective DNA-PKcs inhibition extends the therapeutic index of localized radiotherapy and chemotherapy” (The Journal of Clinical Investigation, 2019).
# Target: T1, CHUK (IKK alpha) (Homo sapiens, UniProt O15111)
# T1 construct: purchased Thermo Fisher Scientific (Life Technologies) SelectScreen
# Assay: SelectScreen Adapta
# Type: biochemical
# Procedure: The in vitro kinase selectivity of NU5455 was determined using the SelectScreen Broad Assay Panel (Thermo Fisher Scientific) involving activity and binding assays (Supplemental Table 1). […] Class IA PI3Ks were measured using the p85α subunit.
# Kinase [ATP] % Assay Kinase [ATP] % Assay Kinase [ATP] % Assay Kinase [ATP] % Assay
# DNA-PK Km app 98.3 Z LATS2 n/a 4.7 L KIT D820E n/a 1.3 L GSK3B (GSK3 beta) Km app -2.5 Z
# PIK3C3 (hVPS34) Km app 85.9 A PRKCZ (PKC zeta) Km app 4.7 Z GRK1 n/a 1.3 L BMPR2 n/a -2.5 L
# PIK3C2B (PI3K-C2 beta) 10 28.9 A FGFR1 Km app 4.7 Z BRSK2 n/a 1.2 L CDC42 BPB (MRCKB) Km app -2.5 Z
# SNF1LK2 Km app 26.6 Z MINK1 Km app 4.6 Z NUAK1 (ARK5) Km app 1.2 A AMPK (A2/B2/G2) n/a -2.6 L
# HCK Km app 18.0 Z CSF1R (FMS) Km app 4.3 Z CDK9/cyclin K n/a 1.0 L PRKG1 Km app -2.7 Z
# NEK2 Km app 17.8 Z CSNK1G3 (CK1 gamma 3) Km app 4.2 Z NUAK2 n/a 1.0 L KIT T670E n/a -2.8 L
# ALK Km app 17.3 Z STK32C (YANK3) n/a 4.2 L CDK2/cyclin O n/a 0.9 L ERBB4 (HER4) Km app -2.8 Z
# FGFR3 K650M n/a 16.5 L STK22D (TSSK1) Km app 4.2 Z CAMKK2 (CaMKK beta) n/a 0.9 L PLK4 n/a -2.8 L
# SIK3 n/a 16.1 L TAOK3 (JIK) n/a 4.2 L FGFR3 Km app 0.9 Z GRK7 Km app -3.0 Z
# LYN A Km app 15.2 Z RPS6KA4 (MSK2) Km app 4.2 Z ULK2 n/a 0.9 L MAPKAPK2 Km app -3.1 Z
# BMPR1B (ALK6) n/a 14.5 L PTK2B (FAK2) Km app 4.2 Z KIT D816V n/a 0.9 L FGFR4 Km app -3.1 Z
# INSRR (IRR) Km app 14.1 Z CLK2 Km app 4.1 Z CAMK1 (CaMK1) 10 0.8 A CASK n/a -3.1 L
# PLK2 Km app 14.1 Z STK24 (MST3) Km app 4.1 Z PTK6 (Brk) Km app 0.7 Z GRK5 Km app -3.2 Z
# PRKACA (PKA) Km app 14.0 Z CAMK1D (CaMKI delta) Km app 4.1 Z CAMK2B (CaMKII beta) Km app 0.7 Z EGFR (ErbB1) T790M Km app -3.3 Z
# EIF2AK2 (PKR) n/a 13.3 L INSR Km app 4.1 Z ACVR1 (ALK2) n/a 0.7 L PAK4 Km app -3.3 Z
# PRKX Km app 12.5 Z IRAK1 Km app 4.0 A ABL1 H396P n/a 0.6 L DAPK3 (ZIPK) Km app -3.4 Z
# FGR Km app 12.1 Z SRC N1 Km app 3.9 Z MERTK (cMER) A708S n/a 0.6 L RET M918T n/a -3.5 L
# CLK1 Km app 11.7 Z SRPK2 Km app 3.9 Z MAPKAPK5 (PRAK) Km app 0.6 Z PRKCQ (PKC theta) Km app -3.7 Z
# MARK3 Km app 11.4 Z RPS6KA6 (RSK4) Km app 3.8 Z AKT1 (PKB alpha) Km app 0.5 Z CAMKK1 (CAMKKA) n/a -3.8 L
# PDGFRB (PDGFR beta) Km app 11.0 Z GRK6 Km app 3.7 Z NTRK3 (TRKC) Km app 0.4 Z FLT3 D835Y Km app -3.9 Z
# PRKCN (PKD3) Km app 10.7 Z PKN1 (PRK1) Km app 3.6 Z ZAP70 Km app 0.3 Z ROCK2 Km app -4.1 Z
# STK16 (PKL12) n/a 10.5 L MAP3K8 (COT) 100 3.5 Z CSNK1A1 (CK1 alpha 1) Km app 0.3 Z CHUK (IKK alpha) Km app -4.2 A
# FES (FPS) Km app 10.4 Z FLT4 (VEGFR3) Km app 3.5 Z MYLK (MLCK) n/a 0.2 L AXL Km app -4.2 Z
# ABL1 Km app 10.4 Z GRK4 Km app 3.5 Z MKNK2 (MNK2) n/a 0.2 L PIM2 Km app -4.3 Z
# MUSK Km app 10.3 Z FRK (PTK5) Km app 3.4 Z AMPK (A1/B1/G3) n/a 0.2 L PAK1 Km app -4.4 Z
# MAPK1 (ERK2) Km app 10.1 Z FYN A n/a 3.3 L MAP3K2 (MEKK2) n/a 0.1 L BMPR1A (ALK3) n/a -4.4 L
# BRAF 100 9.9 Z CDK1/cyclin A2 n/a 3.3 L CDK8/cyclin C n/a 0.1 L STK4 (MST1) Km app -4.4 Z
# IGF1R Km app 9.7 Z KIT V559D T670I n/a 3.1 L MARK2 Km app 0.1 Z PRKCH (PKC eta) Km app -4.6 Z
# MAPK14 (p38 alpha) Km app 9.7 Z SPHK2 10 3.1 A ICK n/a 0.0 L SGKL (SGK3) Km app -4.6 Z
# LCK Km app 9.6 Z FGFR3 G697C n/a 3.1 L FGFR2 Km app 0.0 Z PI4KB (PI4K beta) Km app -4.7 A
# MAPK11 (p38 beta) Km app 9.5 Z RIPK2 n/a 3.1 L AKT2 (PKB beta) Km app 0.0 Z PRKCE (PKC epsilon) Km app -4.9 Z
# SRC Km app 9.5 Z PAK6 Km app 3.0 Z EPHB2 Km app -0.1 Z PHKG1 Km app -5.0 Z
# CHEK1 (CHK1) Km app 9.3 Z LYN B Km app 3.0 Z TGFBR2 n/a -0.1 L PDGFRA D842V Km app -5.0 Z
# CAMK2D (CaMKII delta) Km app 9.3 Z DAPK2 n/a 2.9 L TEK (Tie2) Km app -0.1 Z PRKG2 (PKG2) Km app -5.1 Z
# PLK1 Km app 9.2 Z EPHA4 Km app 2.9 Z AURKA (Aurora A) Km app -0.1 Z TYRO3 (RSE) Km app -5.1 Z
# RET Y791F Km app 9.2 Z PIK3CG (p110 gamma) Km app 2.9 A KIT D816H n/a -0.2 L TAOK2 (TAO1) Km app -5.1 Z
# FLT3 Km app 9.1 Z HIPK1 (Myak) Km app 2.8 Z KIT N822K n/a -0.2 L EPHB4 Km app -5.3 Z
# MAPK10 (JNK3) 100 9.0 Z ADRBK2 (GRK3) Km app 2.8 Z PRKACG (PRKAC gamma) n/a -0.2 L AURKC (Aurora C) Km app -5.4 Z
# CSNK2A2 (CK2 alpha 2) Km app 8.7 Z STK17B (DRAK2) n/a 2.7 L TEK (TIE2) Y1108F n/a -0.3 L JAK1 Km app -5.7 Z […]
# T1 sequence (O15111 whole entry): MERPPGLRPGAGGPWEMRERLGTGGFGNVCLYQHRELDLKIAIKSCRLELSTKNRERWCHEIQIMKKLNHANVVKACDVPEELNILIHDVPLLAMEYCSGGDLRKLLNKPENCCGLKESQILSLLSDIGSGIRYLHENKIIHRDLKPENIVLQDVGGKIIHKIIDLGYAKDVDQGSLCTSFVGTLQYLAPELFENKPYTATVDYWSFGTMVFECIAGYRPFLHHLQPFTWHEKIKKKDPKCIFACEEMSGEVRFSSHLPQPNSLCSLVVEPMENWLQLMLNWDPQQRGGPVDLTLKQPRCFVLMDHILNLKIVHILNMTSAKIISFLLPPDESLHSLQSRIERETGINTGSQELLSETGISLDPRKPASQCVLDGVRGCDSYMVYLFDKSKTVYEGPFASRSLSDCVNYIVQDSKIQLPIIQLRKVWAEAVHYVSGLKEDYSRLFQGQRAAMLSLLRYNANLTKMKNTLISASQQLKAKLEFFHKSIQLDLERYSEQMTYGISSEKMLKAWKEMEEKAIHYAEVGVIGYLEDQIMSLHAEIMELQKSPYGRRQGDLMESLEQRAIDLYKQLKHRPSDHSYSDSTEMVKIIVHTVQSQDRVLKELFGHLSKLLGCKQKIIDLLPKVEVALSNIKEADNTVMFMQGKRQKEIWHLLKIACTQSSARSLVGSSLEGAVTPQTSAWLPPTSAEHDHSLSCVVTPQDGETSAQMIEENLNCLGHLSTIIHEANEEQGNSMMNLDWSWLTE
structure (smiles),measurement,value
CN(C(=O)CN1CCOCC1)c1ccc2sc3c(-c4cccc5c(=O)cc(N6CC7CCC(C6)O7)oc45)cccc3c2c1 [NU5455],inhibition at 1 µM,-4.2%
